“Also recorded” adds a separate entry of the source.
Experiments:
tyrosinase activity = assay: Stimulation of tyrosinase activity in cultured human melanocytes; type: cell-based; conditions: for TA (tyrosinase activity) compared to 10 nM αMSH: cultured human melanocytes; for effect on tyrosinase activity compared to another peptide / concentration at which significant stimulation of tyrosinase activity begins: 6-day treatment; for effect on tyrosinase activity compared to another peptide: in words
Method: Peptides were tested on cultured human melanocytes for their capacity for stimulating tyrosinase activity, the rate-limiting enzyme for melanin synthesis. Melanocytes were treated every other day, for a total of 6 days, with increasing concentrations of peptides. Medium containing H^3-tyrosine, the substrate for tyrosinase, was added to melanocytes 24 hours before the end of the 6-day treatment. Tyrosinase activity was measured by determining the amount of ^3H2O generated as […] is catalyzed by tyrosinase for melanin synthesis.
(§1) Peptides were tested as described in Example 4 above on cultured human melanocytes for their capacity to activate MC1R, as measured by stimulating cAMP formation, and for their capacity for stimulating tyrosinase activity, the rate-limiting enzyme for melanin synthesis. The tested peptides were synthesized according to the formula: Ar(CH2)mX^1—X^2—CO—X^3—X^4—X^5-(Trp)n-NX^6R wherein X^1 and X^2 are absent, X^3 is His, X^5 is Arg, and X^6 is H. X^4 amino acids were in the D-stereoisomer form, unless otherwise noted.

MC1R [1] = target: T1, MC1R (Homo sapiens, UniProt Q01726); assay: Stimulation of cAMP formation in cultured human melanocytes; type: cell-based; set-up: MC1R is expressed on the cell surface of melanocytes; endogenous in cells; host or cells: cultured human melanocytes; conditions: for cAMP compared to 10 nM αMSH: cultured human melanocytes; for potency in stimulating cAMP formation compared to another peptide: in words
Method: Peptides were tested on cultured human melanocytes for their capacity to activate MC1R, as measured by stimulating cAMP formation. After 45 minutes of treatment with different concentrations of peptides, cAMP levels were measured using a I^125-labeled radioimmunoassay kit.
as §1

MC1R [2] = target: T1, MC1R; assay: cAMP stimulation in heterologous cells expressing human MC1R; type: cell-based; set-up: expressed in transfected cells; conditions: for EC50: cAMP, heterologous cells; for potency in activation of MC1R compared to MT-II: in words
Method: (§2) Receptor selectivity of peptide agonists for hMC1R was determined by stimulation of cAMP in heterologous cells expressing different human melanocortin receptors (MC1R, MC3R, MC4R, and MC5R).

hMC3R = target: T2, hMC3R (Homo sapiens, UniProt P41968); assay: cAMP stimulation in heterologous cells expressing human MC3R; type: cell-based; conditions: for EC50: cAMP, heterologous cells; for binding of MC3R: in words
T2 construct: expressed in transfected cells
Method: as §2

hMC5R = target: T3, hMC5R (Homo sapiens, UniProt P33032); assay: cAMP stimulation in heterologous cells expressing human MC5R; type: cell-based; conditions: for EC50: cAMP, heterologous cells; for binding of MC5R: in words
T3 construct: expressed in transfected cells
Method: as §2

[3] = system: UV-irradiated human melanocytes; assay: Repair of UV-induced cyclobutane pyrimidine dimers (CPD) in human melanocytes; type: cell-based; conditions: for CPD removal at 1 nM compared to 10 nM α-MSH: 1 nM peptide, 48 hours post UV
Method: To investigate the effects of peptides on the repair of UV-induced DNA damage, levels of cyclobutane pyrimidine dimers (CPD), the major form of DNA photoproducts, were measured in UV-irradiated human melanocytes with or without peptide treatment. Melanocytes were pretreated with the peptides for 4 days prior to, and for 48 hours post UV exposure, harvested, immunostained by a specific antibody for CPD, and analyzed by flow cytometry.

mouse MCRs = conditions: in words; cited from earlier work
human melanocytes = assay: Potency in human melanocytes; type: cell-based; conditions: in words
From the text: Satyanarayanajois S. D., et al., Conformations of end-capped melanocortin agonists RCO-X-Z-Arg-Trp-NH2 by 2D-NMR, CD and computations, Peptides Breaking Away: Proceedings of the Twenty-First American Peptide Association 384 (2009). […] Ruwe A. R. et al., Semi-rigid tripeptide agonists of melanocortin receptors, Bioorg. Med. Chem. Lett. 19(17): 5176-81 (2009). […] Thus, while not desiring to be bound by theory, it is believed that the conformational restraints favorable for longer peptides may be unfavorable for shorter MC1R agonists, including the Formula I and Formula II peptides disclosed herein.

hMC4R = target: T4, hMC4R (Homo sapiens, UniProt P32245); assay: cAMP stimulation in heterologous cells expressing human MC4R; type: cell-based; conditions: for EC50: cAMP, heterologous cells
T4 construct: expressed in transfected cells
Method: as §2

[4] = system: UV-irradiated human melanocytes; assay: Repair of UV-induced 8-oxodG in human melanocytes; type: cell-based
Method: To investigate the effects of peptides on repair of UV-induced DNA damage, levels of 8-oxodG, a major form of oxidative DNA damage, were measured in UV-irradiated human melanocytes with or without peptide treatment. […] Fluorescence intensity, which correlates with the amount of DNA damage, was quantified using ImagJ software.

[5] = Peptide storage stability by HPLC; type: physicochemical; conditions: lyophilized, open air, room temperature, 4 months
Method: LK-513 (Ph(CH2)3CO-His-(D-4-Bip)-Arg-NHMe) was tested for stability and degradation over a storage period. The peptide was stored in a lyophilized form in open air at room temperature for 4 months. After 4 months, HPLC was performed on a test sample of the peptide in order to measure degradation, using standard methods (FIG. 1). […] Without being bound by theory, it is believed that the enhanced stability is a product of the absence of amide bonds between natural L-L-amino acids in the tripeptides and the existence of only one amide bond between natural amino acids in the tetrapeptides (Arg-Trp). Amide bonds between non-natural D- and natural L-amino acids are less prone to chemical and enzymatic hydrolysis, as evidenced by the FIG. 1. Further, the bulk and hydrophobicity of the X4 amino acid (D-Phe or a bulky hydrophobic analog thereof, such as D-4-Bip in the case of LK-513) shield the polar amid bonds of the peptide from chemical and enzymatic degradation.

T3 sequence (P33032 whole entry): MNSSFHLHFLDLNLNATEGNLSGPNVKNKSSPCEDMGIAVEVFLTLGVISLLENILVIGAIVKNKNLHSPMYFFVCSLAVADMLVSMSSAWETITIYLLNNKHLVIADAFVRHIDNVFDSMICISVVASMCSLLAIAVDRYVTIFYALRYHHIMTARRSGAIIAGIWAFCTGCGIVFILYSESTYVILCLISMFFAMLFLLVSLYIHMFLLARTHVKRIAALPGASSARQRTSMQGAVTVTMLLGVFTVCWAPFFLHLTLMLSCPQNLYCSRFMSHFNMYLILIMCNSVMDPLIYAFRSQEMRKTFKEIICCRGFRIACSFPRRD
T1 sequence (Q01726 whole entry): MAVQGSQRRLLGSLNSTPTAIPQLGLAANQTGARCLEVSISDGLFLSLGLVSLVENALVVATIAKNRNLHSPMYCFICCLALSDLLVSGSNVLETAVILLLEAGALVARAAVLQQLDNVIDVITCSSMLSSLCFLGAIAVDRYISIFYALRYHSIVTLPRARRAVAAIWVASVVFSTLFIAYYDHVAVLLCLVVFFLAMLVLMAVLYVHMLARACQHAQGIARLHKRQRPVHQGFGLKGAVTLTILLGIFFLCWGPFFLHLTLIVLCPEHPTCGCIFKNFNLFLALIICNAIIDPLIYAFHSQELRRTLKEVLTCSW
T4 sequence (P32245 whole entry): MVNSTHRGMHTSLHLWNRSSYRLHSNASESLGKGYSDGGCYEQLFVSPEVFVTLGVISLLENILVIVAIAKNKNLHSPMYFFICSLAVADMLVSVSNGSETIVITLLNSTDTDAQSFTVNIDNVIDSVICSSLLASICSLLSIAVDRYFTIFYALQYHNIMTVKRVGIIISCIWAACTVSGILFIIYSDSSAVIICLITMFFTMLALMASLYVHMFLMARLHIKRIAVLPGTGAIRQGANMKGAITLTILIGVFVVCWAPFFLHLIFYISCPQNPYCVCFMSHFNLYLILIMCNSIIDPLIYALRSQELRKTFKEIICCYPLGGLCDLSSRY
T2 sequence (P41968 whole entry): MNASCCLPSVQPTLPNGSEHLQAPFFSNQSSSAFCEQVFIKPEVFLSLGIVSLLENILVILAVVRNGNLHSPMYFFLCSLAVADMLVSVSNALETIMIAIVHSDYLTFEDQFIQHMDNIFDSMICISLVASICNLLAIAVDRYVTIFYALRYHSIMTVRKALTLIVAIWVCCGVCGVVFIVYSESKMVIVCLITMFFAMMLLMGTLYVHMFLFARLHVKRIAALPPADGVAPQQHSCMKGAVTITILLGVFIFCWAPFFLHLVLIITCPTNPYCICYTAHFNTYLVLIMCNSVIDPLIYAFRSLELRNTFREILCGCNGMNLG

Compound: Ph(CH2)3CO-His-(D-1-Nal)-Arg-NH2 [LK 510P]
- TA (tyrosinase activity) compared to 10 nM αMSH (tyrosinase activity): NR (NR = No Response/inactive at 10 nM)

Compound: Ph(CH2)3CO-His-(D-2-Nal)-Arg-Trp-NH2 [LK 468P]
- cAMP compared to 10 nM αMSH (MC1R [1]): ≦

Compound: N=C(N)NCCC[C@H](NC(=O)[C@@H](Cc1ccccc1)NC(=O)[C@H](Cc1c[nH]cn1)NC(=O)CCCc1ccccc1)C(=O)N[C@@H](Cc1c[nH]c2ccccc12)C(N)=O [LK-184, Ph(CH2)3CO-His-(D-Phe)-Arg-Trp-NH2]
- EC50 (MC1R [2]): 0.19 nM
- concentration giving maximal cAMP (MC1R [1]; human melanocytes, 45 minutes of treatment): 10 nM
- EC50 (hMC3R): 22.7 nM
- EC50 (hMC5R): 262 nM
- CPD removal at 1 nM compared to 10 nM α-MSH [3]: same effect at 1 nM on CPD removal as 10 nM α-MSH
- effect on tyrosinase activity compared to another peptide (tyrosinase activity; human melanocytes): comparable effects in tyrosinase activity

Compound: trans-4-HOC6H4CH═CHCO-His-D-Phe-Arg-NH2
- MC1R selectivity and potency at mouse MCRs compared to LK-394 (mouse MCRs): moderately increased MC1R selectivity and potency
- potency in human melanocytes (human melanocytes): less potent

Compound: Ph(CH2)3CO-His-(D-1-Nal)-Arg-NHMe [LK 512P]
- TA (tyrosinase activity) compared to 10 nM αMSH (tyrosinase activity): NR (NR = No Response/inactive at 10 nM)

Compound: 4-FC6H4CH2CO-His-(D-4-FPhe)-Arg-Trp-NH2 [LK 205P]
- cAMP compared to 10 nM αMSH (MC1R [1]): ≦
- TA (tyrosinase activity) compared to 10 nM αMSH (tyrosinase activity): ≧

Compound: N=C(N)NCCC[C@H](NC(=O)[C@@H](Cc1cccc2ccccc12)NC(=O)[C@H](Cc1c[nH]cn1)NC(=O)CCCc1ccccc1)C(=O)N[C@@H](Cc1c[nH]c2ccccc12)C(N)=O [LK-467, Ph(CH2)3CO-His-(D-1-Nal)-Arg-Trp-NH2]
- EC50 (MC1R [2]): 0.34 nM
- potency in stimulating cAMP formation compared to another peptide (MC1R [1]; human melanocytes): more potent than LK-184
- EC50 (hMC4R): 18.1 nM
- potency at hMC4R compared to LK-184 (hMC4R; in words): about ten times less potent
- EC50 (hMC3R): 32.4 nM
- EC50 (hMC5R): 122 nM
- reduction of 8-oxodG levels compared to LK-184 ([4]; 24 hours after UV exposure): as effective as LK-184
- CPD removal at 1 nM compared to 10 nM α-MSH [3]: same effect at 1 nM on CPD removal as 10 nM α-MSH
- reduction of CPD levels compared to LK-184 ([3]; 48 hours after UV exposure): as effective as LK-184
- effect on tyrosinase activity compared to another peptide (tyrosinase activity; human melanocytes): comparable effects in tyrosinase activity
- potency compared to α-MSH in activating MC1R and stimulating melanogenesis (tyrosinase activity; human melanocytes, tyrosinase activity): at least 100 times

Compound: Ph(CH2)3CO-His-(D-Phe)-Arg-Trp-NHEt [LK-487]
- potency in stimulating cAMP formation compared to another peptide (MC1R [1]; human melanocytes): equipotent to LK-467
- effect on tyrosinase activity compared to another peptide (tyrosinase activity; human melanocytes): equipotent to LK-467

Compound: N=C(N)NCCC[C@H](NC(=O)[C@@H](Cc1ccc(-c2ccccc2)cc1)NC(=O)[C@H](Cc1c[nH]cn1)NC(=O)CCCc1ccccc1)C(N)=O [LK-511, Ph(CH2)3CO-His-(D-4-Bip)-Arg-NH2]
- EC50 (MC1R [2]): 1.46 nM
- potency in activation of MC1R compared to MT-II (MC1R [2]): about as potent as MT-II
- potency in stimulating cAMP formation compared to another peptide (MC1R [1]; human melanocytes): about ten times less potent than α-MSH
- EC50 (hMC4R): > 10000 nM
- binding of MC4R (hMC4R; in words): do not bind
- EC50 (hMC3R): > 10000 nM
- binding of MC3R (hMC3R): do not bind
- EC50 (hMC5R): > 10000 nM
- binding of MC5R (hMC5R): do not bind
- TA (tyrosinase activity) compared to 10 nM αMSH (tyrosinase activity): <
- concentration at which significant stimulation of tyrosinase activity begins (tyrosinase activity; human melanocytes): 1 nM

Compound: 3,4-O(CH2)2C6H4CH2CO-His-(D-4-FPhe)-Arg-Trp-NH2 [LK 210P]
- cAMP compared to 10 nM αMSH (MC1R [1]): ≧

Compound: Ph(CH2)3CO-His-(D-4-tBuPhe)-Arg-NHMe [LK 516P]
- TA (tyrosinase activity) compared to 10 nM αMSH (tyrosinase activity): <<

Compound: CNC(=O)[C@H](CCCNC(=N)N)NC(=O)[C@@H](Cc1ccc(-c2ccccc2)cc1)NC(=O)[C@H](Cc1c[nH]cn1)NC(=O)CCCc1ccccc1 [LK-513, Ph(CH2)3CO-His-(D-4-Bip)-Arg-NHMe]
- EC50 (MC1R [2]): 3.27 nM
- potency in activation of MC1R compared to MT-II (MC1R [2]): about as potent as MT-II
- potency in stimulating cAMP formation compared to another peptide (MC1R [1]; human melanocytes): about ten times less potent than α-MSH
- stability and degradation by HPLC [5]: highly stable and resistant to degradation, showing only a single HPLC peak; also recorded: highly stable and substantially free of degradation
- EC50 (hMC4R): > 10000 nM
- binding of MC4R (hMC4R; in words): do not bind
- EC50 (hMC3R): > 10000 nM
- binding of MC3R (hMC3R): do not bind
- EC50 (hMC5R): > 10000 nM
- binding of MC5R (hMC5R): do not bind
- TA (tyrosinase activity) compared to 10 nM αMSH (tyrosinase activity): <
- concentration at which significant stimulation of tyrosinase activity begins (tyrosinase activity; human melanocytes): 1 nM

Compound: Ph(CH2)3CO-His-(D-2-Nal)-Arg-NHMe [LK 517P]
- TA (tyrosinase activity) compared to 10 nM αMSH (tyrosinase activity): <<<

Compound: CC(C)(C)c1ccc(C[C@@H](NC(=O)[C@H](Cc2c[nH]cn2)NC(=O)CCCc2ccccc2)C(=O)N[C@@H](CCCNC(=N)N)C(N)=O)cc1 [LK-514, Ph(CH2)3CO-His-(D-4-tBuPhe)-Arg-NH2]
- EC50 (MC1R [2]): 3.65 nM
- potency in activation of MC1R compared to MT-II (MC1R [2]): about as potent as MT-II
- potency in stimulating cAMP formation compared to another peptide (MC1R [1]; human melanocytes): about ten times less potent than α-MSH; also recorded: more potent than LK-511 or 513; also recorded: more potent than LK-511 or LK-513
- EC50 (hMC4R): > 10000 nM
- binding of MC4R (hMC4R; in words): do not bind
- EC50 (hMC3R): > 10000 nM
- binding of MC3R (hMC3R): do not bind
- EC50 (hMC5R): > 10000 nM
- binding of MC5R (hMC5R): do not bind
- reduction of 8-oxodG levels at 100 nM compared to 1 nM α-MSH ([4]; 100 nM peptide, 24 hours post UV): greater effect than 1 nM α-MSH
- TA (tyrosinase activity) compared to 10 nM αMSH (tyrosinase activity): <
- concentration at which significant stimulation of tyrosinase activity begins (tyrosinase activity; human melanocytes): 1 nM
- effect on tyrosinase activity compared to another peptide (tyrosinase activity; human melanocytes): the most effective

Compound: Ph(CH2)3CO-His-(D-2-Nal)-Arg-NH2 [LK 515P]
- TA (tyrosinase activity) compared to 10 nM αMSH (tyrosinase activity): <<

Source: patent US9434764B2, “Skin care compositions and methods comprising selective agonists of melanocortin 1 receptor” (University of Cincinnati, priority 2012, dated 2016)
